# Laboratory results reported in US9637453B2, “3-spirocyclic-6-hydroxamic acid tetralins as HDAC inhibitors” (Forma Therapeutics, Inc., priority 2015, dated 2017).
# Tests used:
# [1] = biological target: T1, Full length human recombinant HDAC11 (Homo sapiens, UniProt Q96DB2); assay: In vitro histone deacetylase assay, enzymatic HDAC11 (electrophoretic mobility shift assay); type: biochemical; conditions: 10 nM HDAC11; 2 μM peptide substrate FAM-RHKK(tri-fluor-Ac)—NH2; 25° C.; 12 concentrations; read-out: HDAC11 Activity Range (IC50)
# T1 construct: Full length human recombinant HDAC6 and HDAC11 proteins were expressed in baculoviral system
# T1 sequence (Q96DB2 1-347): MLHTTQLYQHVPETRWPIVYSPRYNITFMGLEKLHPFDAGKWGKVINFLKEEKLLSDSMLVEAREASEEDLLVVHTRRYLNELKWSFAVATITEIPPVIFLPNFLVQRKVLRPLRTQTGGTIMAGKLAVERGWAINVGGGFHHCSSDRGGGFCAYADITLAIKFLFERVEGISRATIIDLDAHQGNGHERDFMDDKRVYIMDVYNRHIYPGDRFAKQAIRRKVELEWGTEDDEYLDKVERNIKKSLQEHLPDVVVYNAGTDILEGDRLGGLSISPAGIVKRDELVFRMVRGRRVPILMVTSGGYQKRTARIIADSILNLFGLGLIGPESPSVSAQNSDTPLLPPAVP
# Experimental: (§1) The enzymatic HDAC6 and HDAC11 assays were performed using electrophoretic mobility shift assay. Full length human recombinant HDAC6 and HDAC11 proteins were expressed in baculoviral system and purified by affinity chromatography. The enzymatic reactions were assembled in 384 well plates in a total volume of 25 μL in a reaction buffer composing: 100 mM HEPES, pH 7.5, 25 mM KCl, 0.1% bovine serum albumin, 0.01% Triton X-100, 1% DMSO (from compounds) 2 μM of the fluorescently labeled peptide substrate and enzyme. The enzymes were added at a final concentration of 1 nM for HDAC6, and 10 nM for HDAC11. The peptide substrate FAM-RHKK(Ac)—NH2 was used for HDAC6, and FAM-RHKK(tri-fluor-Ac)—NH2 for HDAC11. The compounds were tested at 12 concentrations spaced by 3× dilution intervals. Negative control samples (0%-inhibition in the absence of inhibitor) and positive control samples (100%-inhibition) were assembled in replicates of four in each assay plate. The reactions were incubated at 25° C. and quenched by the addition of 45 μL of termination buffer (100 mM HEPES, pH 7.5, 0.01% Triton X-100, 0.05% SDS).
# (§2) The terminated assay plates were analyzed on LabChip® 3000 microfluidic electrophoresis instrument (Perkin Elmer/Caliper Life Sciences). The fluorescence intensity of the electrophoretically separated de-acetylated product and substrate peptide was measured. Activity in each sample was determined as the product to sum ratio (PSR): P/(S+P), where P is the peak height of the product peptide and S is the peak height of the substrate peptide. Percent inhibition (Pinh) is determined using following equation:
# (§3) Pinh=(PSR0%−PSRinh)/(PSR0%−PSR100%)*100, where PSRinh is the product sum ratio in the presence of inhibitor, PSR0% is the average product sum ration in the absence of inhibitor and PSR100% is the average product sum ratio in 100%-inhibition control samples. The IC50 values of inhibitors were determined by fitting the %-inhibition curves with 4 parameter dose-response model using XLfit 4 software.
# (§4) As set forth in Table-26 and Table-27, below, IC5o values are defined as follows: IC50≦0.1 μM (+++); IC50>0.1 μM and ≦0.5 μM (++); IC50>0.5 μM (+).
# [2] = biological target: T2, Full length human recombinant HDAC6 (Homo sapiens, UniProt Q9UBN7); assay: In vitro histone deacetylase assay, enzymatic HDAC6 (electrophoretic mobility shift assay); type: biochemical; conditions: 1 nM HDAC6; 2 μM peptide substrate FAM-RHKK(Ac)—NH2; 25° C.; 12 concentrations; read-out: HDAC6 Activity Range (IC50)
# T2 construct: Full length human recombinant HDAC6 and HDAC11 proteins were expressed in baculoviral system
# T2 sequence (Q9UBN7 1-1215): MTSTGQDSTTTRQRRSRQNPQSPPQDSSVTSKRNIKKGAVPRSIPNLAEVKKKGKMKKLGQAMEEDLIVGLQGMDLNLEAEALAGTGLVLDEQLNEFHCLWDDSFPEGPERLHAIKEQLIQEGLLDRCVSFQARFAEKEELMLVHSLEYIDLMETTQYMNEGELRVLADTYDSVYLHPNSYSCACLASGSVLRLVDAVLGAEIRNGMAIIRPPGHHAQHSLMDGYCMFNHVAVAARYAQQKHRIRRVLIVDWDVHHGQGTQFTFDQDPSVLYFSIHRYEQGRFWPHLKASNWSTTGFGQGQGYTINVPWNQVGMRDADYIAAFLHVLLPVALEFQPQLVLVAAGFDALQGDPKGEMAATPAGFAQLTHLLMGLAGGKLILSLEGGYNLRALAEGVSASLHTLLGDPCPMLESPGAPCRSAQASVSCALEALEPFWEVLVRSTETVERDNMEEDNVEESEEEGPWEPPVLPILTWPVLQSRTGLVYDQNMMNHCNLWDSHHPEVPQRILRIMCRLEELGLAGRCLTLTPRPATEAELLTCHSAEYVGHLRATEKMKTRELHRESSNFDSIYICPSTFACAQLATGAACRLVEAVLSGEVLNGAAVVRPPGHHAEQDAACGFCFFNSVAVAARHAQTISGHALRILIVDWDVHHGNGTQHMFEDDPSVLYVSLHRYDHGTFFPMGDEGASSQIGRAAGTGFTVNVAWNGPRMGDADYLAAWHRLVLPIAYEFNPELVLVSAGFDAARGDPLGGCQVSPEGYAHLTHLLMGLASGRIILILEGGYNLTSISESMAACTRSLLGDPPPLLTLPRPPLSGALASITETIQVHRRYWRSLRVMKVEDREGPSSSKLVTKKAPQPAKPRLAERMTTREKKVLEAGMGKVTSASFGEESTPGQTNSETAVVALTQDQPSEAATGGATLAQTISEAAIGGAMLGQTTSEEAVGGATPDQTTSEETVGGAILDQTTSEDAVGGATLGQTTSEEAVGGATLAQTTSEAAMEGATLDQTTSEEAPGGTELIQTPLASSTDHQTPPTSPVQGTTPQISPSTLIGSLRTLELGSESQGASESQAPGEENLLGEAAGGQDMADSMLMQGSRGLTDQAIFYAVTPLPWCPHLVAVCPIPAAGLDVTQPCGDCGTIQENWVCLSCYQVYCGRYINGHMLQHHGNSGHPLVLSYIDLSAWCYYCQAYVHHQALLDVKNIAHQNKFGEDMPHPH
# Experimental: as §1, §2, §3, §4
Structure (SMILES),IC50 [1],IC50 [2]
"COCCN1CC[C@]2(CCc3ccc(C(=O)NO)cc3C2)C1=O [Compound I-84, (R)—N-hydroxy-1′-(2-methoxyethyl)-2′-oxo-3,4-dihydro-1H-spiro[naphthalene-2,3′-pyrrolidine]-7-carboxamide]",> 500 nM,≤ 100 nM
"O=C(NO)c1ccc2c(c1)C[C@]1(CC2)CCN(Cc2ccc(C(F)(F)F)cc2)C1=O [Compound I-127, (R)—N-hydroxy-2′-oxo-1′-(4-(trifluoromethyl)benzyl)-3,4-dihydro-1H-spiro[naphthalene-2,3′-pyrrolidine]-7-carboxamide]",100 to 500 nM,≤ 100 nM
"Cc1ccc(CN2CC[C@]3(CCc4ccc(C(=O)NO)cc4C3)C2=O)cc1 [Compound I-123, (R)—N-hydroxy-1′-(4-methylbenzyl)-2′-oxo-3,4-dihydro-1H-spiro[naphthalene-2,3′-pyrrolidine]-7-carboxamide]",> 500 nM,≤ 100 nM
"O=C(NO)c1ccc2c(c1)C[C@@]1(CC2)CCN(c2cnc3ccccc3c2)C1=O [Compound I-118, (S)—N-hydroxy-2′-oxo-1′-(quinolin-3-yl)-3,4-dihydro-1H-spiro[naphthalene-2,3′-pyrrolidine]-7-carboxamide]",> 500 nM,≤ 100 nM
"O=C(NO)c1ccc2c(c1)CC1(CCNC1)CC2 (stereo not shown) [Compound I-8, N-hydroxy-3,4-dihydro-1H-spiro[naphthalene-2,3′-pyrrolidine]-7-carboxamide]",> 500 nM,100 to 500 nM
"O=C(NO)c1ccc2c(c1)C[C@]1(CC2)CCN(c2cnc3ccccn23)C1=O [Compound I-111, (R)—N-hydroxy-1′-(imidazo[1,2-a]pyridin-3-yl)-2′-oxo-3,4-dihydro-1H-spiro[naphthalene-2,3′-pyrrolidine]-7-carboxamide]",100 to 500 nM,≤ 100 nM
"O=C(NO)c1ccc2c(c1)C[C@@]1(CC2)CC(=O)N(C2CC2)C1 [Compound I-141, (S)-1′-cyclopropyl-N-hydroxy-5′-oxo-3,4-dihydro-1H-spiro[naphthalene-2,3′-pyrrolidine]-7-carboxamide]",> 500 nM,≤ 100 nM
"CCN1C[C@@]2(CCc3ccc(C(=O)NO)cc3C2)CC1=O [Compound I-142, (R)-1′-ethyl-N-hydroxy-5′-oxo-3,4-dihydro-1H-spiro[naphthalene-2,3′-pyrrolidine]-7-carboxamide]",> 500 nM,≤ 100 nM
"CC(C)n1c(CN2CC[C@@]3(CCc4ccc(C(=O)NO)cc4C3)C2=O)nc2ccccc21 [Compound I-66, (S)—N-hydroxy-1′-((1-isopropyl-1H-benzo[d]imidazol-2-yl)methyl)-2′-oxo-3,4-dihydro-1H-spiro[naphthalene-2,3′-pyrrolidine]-7-carboxamide]",> 500 nM,≤ 100 nM
"O=C(NO)c1ccc2c(c1)C[C@]1(CC2)CC(=O)N(Cc2ccc(F)cc2)C1 [Compound I-128, (R)-1′-(4-fluorobenzyl)-N-hydroxy-5′-oxo-3,4-dihydro-1H-spiro[naphthalene-2,3′-pyrrolidine]-7-carboxamide]",> 500 nM,≤ 100 nM
"O=C(NO)c1ccc2c(c1)OC1(CC2)CCN(C(=O)C2CCCCC2)CC1 [II-5, 1′-(cyclohexanecarbonyl)-N-hydroxyspiro[chromane-2,4′-piperidine]-7-carboxamide]",100 to 500 nM,≤ 100 nM
"COc1ccc(CN2CC[C@@]3(CCc4ccc(C(=O)NO)cc4C3)C2=O)cc1 [Compound I-75, (S)—N-hydroxy-1′-(4-methoxybenzyl)-2′-oxo-3,4-dihydro-1H-spiro[naphthalene-2,3′-pyrrolidine]-7-carboxamide]",> 500 nM,≤ 100 nM
"O=C(NO)c1ccc2c(c1)C[C@@]1(CC2)CCN(c2cccnc2)C1=O [Compound I-28, (S)—N-hydroxy-2′-oxo-1′-(pyridin-3-yl)-3,4-dihydro-1H-spiro[naphthalene-2,3′-pyrrolidine]-7-carboxamide]",100 to 500 nM,≤ 100 nM
"O=C(NO)c1ccc2c(c1)C[C@@]1(CC2)CCN(c2ccc(Cl)c(Cl)c2)C1=O [Compound I-112, (S)-1′-(3,4-dichlorophenyl)-N-hydroxy-2′-oxo-3,4-dihydro-1H-spiro[naphthalene-2,3′-pyrrolidine]-7-carboxamide]",> 500 nM,≤ 100 nM
"O=C(NO)c1ccc2c(c1)C[C@@]1(CC2)CCN(c2ccccn2)C1=O [Compound I-44, (S)—N-hydroxy-2′-oxo-1′-(pyridin-2-yl)-3,4-dihydro-1H-spiro[naphthalene-2,3′-pyrrolidine]-7-carboxamide]",> 500 nM,≤ 100 nM
"COc1cccc(CN2CCC3(CCc4ccc(C(=O)NO)cc4C3)C2)c1 (stereo not shown) [Compound I-14, N-hydroxy-1′-(3-methoxybenzyl)-3,4-dihydro-1H-spiro[naphthalene-2,3′-pyrrolidine]-7-carboxamide]",> 500 nM,≤ 100 nM
"O=C(NO)c1ccc2c(c1)C[C@]1(CC2)CC(=O)N(CC2COC2)C1 [Compound I-146, (R)—N-hydroxy-1′-(oxetan-3-ylmethyl)-5′-oxo-3,4-dihydro-H-spiro[naphthalene-2,3′-pyrrolidine]-7-carboxamide]",> 500 nM,≤ 100 nM
"O=C(NO)c1ccc2c(c1)C[C@]1(CC2)CCN(Cc2ccc3ccccc3c2)C1=O [Compound I-104, (R)—N-hydroxy-1′-(naphthalen-2-ylmethyl)-2′-oxo-3,4-dihydro-1H-spiro[naphthalene-2,3′-pyrrolidine]-7-carboxamide]",≤ 100 nM,≤ 100 nM
"O=C(NO)c1ccc2c(c1)OC1(CC2)CCN(C2CCCCC2)CC1 [II-6, 1′-cyclohexyl-N-hydroxyspiro[chroman-2,4′-piperidine]-7-carboxamide]",≤ 100 nM,100 to 500 nM
"Cc1ccc(N2CC[C@@]3(CCc4ccc(C(=O)NO)cc4C3)C2=O)c(C)c1 [Compound I-113, (S)-1′-(2,4-dimethylphenyl)-N-hydroxy-2′-oxo-3,4-dihydro-H-spiro[naphthalene-2,3′-pyrrolidine]-7-carboxamide]",> 500 nM,≤ 100 nM
